The record followed here is PMC11375794, “Discovery of new Hsp90–Cdc37 protein–protein interaction inhibitors: in silico screening and optimization of anticancer activity” (RSC Advances, 2024).

The target in assay [1] is T1, full-length Hsp90β and Cdc37 (Homo sapiens, UniProt P08238).
T1 construct: host or cells: Escherichia coli strain Rosetta (Hsp90β)
The assay is described as follows: MST PPI inhibition evaluation: Kd for Hsp90β in the presence of Cdc37. Format: binding. As for the experimental part:
The full-length Hsp90β was labeled using the Monolith His-Tag Labeling Kit RED-tris-NTA following the manufacturer's instructions (NanoTemper Technologies GmbH, Munich, Germany). The proteins were first diluted to a concentration of 8 nM in assay buffer (50 mM Tris–HCl, pH 7.4, containing 150 mM NaCl, 5% ethanol, and 10 mM MgCl2). To determine the Kd values, the proteins were mixed with the test compounds in a 1 : 1 ratio as stated in the manufacturers protocol. The final concentration of Hsp90β was 4 nM, with compounds added in the following ranges: 1000 μM to 5.86 μM for 8c; 312.5 μM to 0.15 μM for 13g and 125 μM to 3.91 μM for 1. Two independent Kd determinations were performed for compounds 8c and 13g. […] Next, Cdc37 (AR09008PUN, OriGene Technologies, Inc., Rockville, MD, USA) was acquired for the purpose of PPI inhibition evaluation between full-length Hsp90β and Cdc37. […] In all experiments the compounds were incubated with the proteins for 15 minutes in the dark at room temperature. The mixtures were then loaded into Monolith NT.115 Premium Capillaries (NanoTemper Technologies GmbH, Munich, Germany). Thermophoresis was induced at 1475 ± 15 nm and measured using a Monolith NT.115 pico instrument (NanoTemper Technologies GmbH, Munich, Germany). Measurements were conducted at ambient temperature (24–25 °C), with excitation power set to 20% and MST power set to 40%, and a laser on time of 5 seconds. To calculate the Kd values, the average fluorescence responses for each concentration were plotted against the logarithm of compound concentrate on using GraphPad Prism software (GraphPad Software, Inc., La Jolla, CA).

The target of another assay is T2, full-length Hsp90β (Homo sapiens, UniProt P08238).
T2 construct: For the protein expression of full-length Hsp90β, we received plasmids as a kind gift; made in house; host or cells: Escherichia coli strain Rosetta
T2 sequence (P08238 whole entry): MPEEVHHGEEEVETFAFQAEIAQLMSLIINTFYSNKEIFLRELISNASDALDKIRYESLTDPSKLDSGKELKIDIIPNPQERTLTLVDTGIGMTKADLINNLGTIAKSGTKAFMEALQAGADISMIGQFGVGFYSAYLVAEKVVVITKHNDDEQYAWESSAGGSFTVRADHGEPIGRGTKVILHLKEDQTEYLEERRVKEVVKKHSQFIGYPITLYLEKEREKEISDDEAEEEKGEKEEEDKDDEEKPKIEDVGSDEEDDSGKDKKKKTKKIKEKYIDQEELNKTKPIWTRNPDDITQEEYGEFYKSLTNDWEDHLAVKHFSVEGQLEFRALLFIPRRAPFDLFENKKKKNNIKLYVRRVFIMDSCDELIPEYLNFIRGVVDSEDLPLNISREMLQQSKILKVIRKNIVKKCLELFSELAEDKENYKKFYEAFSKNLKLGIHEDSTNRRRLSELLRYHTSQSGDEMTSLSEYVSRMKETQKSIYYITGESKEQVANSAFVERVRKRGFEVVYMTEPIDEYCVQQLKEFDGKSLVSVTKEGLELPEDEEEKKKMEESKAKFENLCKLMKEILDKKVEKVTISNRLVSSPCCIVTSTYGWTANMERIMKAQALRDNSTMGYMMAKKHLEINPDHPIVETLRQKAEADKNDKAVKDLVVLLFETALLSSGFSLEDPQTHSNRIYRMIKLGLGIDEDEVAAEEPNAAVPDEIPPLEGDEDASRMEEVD
Briefly: Ligand-observed protein NMR (STD, trNOESY) with Hsp90β. In kind it is binding. Conditions: for STD amplification factor (AMP): Hsp90β : ligand 1 : 200. The method, then: High-resolution NMR spectra of 13g were recorded using a Bruker Avance Neo 600 MHz spectrometer with a cryoprobe at 25 °C. Data collection employed pulse sequences from the Bruker library, and analysis was conducted using Bruker Topspin 4.2.0. The residual water signal was suppressed by excitation sculpting[54] with a 5 ms selective pulse, and a T1ρ filter of 100 ms was used to remove background protein resonances. The ^1H spectral widths were set at 5263 Hz. NMR samples were prepared in a buffer containing 50 mM potassium phosphate (pD 7.5), 100 mM KCl in D2O, 5 mM MgSO4, 2 mM DTT-d10, 0.02% NaN3, and 2% DMSO-d6. Full proton assignment (see ESI Fig. S6 and Table S2 ^†) was achieved using TOCSY, NOESY, ROESY, and HSQC spectra. The ^1H STD spectra were recorded with a protein : ligand ratio of 1 : 200, with protein and ligand concentrations of […] and 3 mM.
For the ^1H STD ligand epitope mapping experiments,[55] 65 536 data points (6.23 s and acquisition time) were used, with a relaxation delay of 1.63 s and 5120 scans. A short protein saturation time of 0.5 s was utilized to minimize the effect of relaxation on the STD amplification factors.[56] Selective on-resonance saturation of Hsp90β was performed at −0.827 ppm, with the transmitter offset referenced to 4.70 ppm. Off-resonance irradiation for the reference spectrum was applied at 30 ppm. The spectra were zero-filled and apodized using an exponential line-broadening function of 3 Hz. Errors in the STD amplification factor were estimated using the specified formula:[57] [drawing 46] NSTD and NREF are noise levels in STD and reference spectra. ISTD and IREF are signal intensities in STD and reference spectra. The relative errors of the STD amplification factors (Tables S3 and S6 ^†) for all protons are below 4%.
The trNOESY[58] spectra were recorded with 4096 data points in t2, 64 scans, 360 complex points in t1, and a relaxation delay of 1.5 s. […] The spectra were apodized with a squared sine bell function shifted by π/2 in both dimensions. Distances for 13g were calculated from the cross-peak volumes, assuming the integrated intensity of proton pairs 2′, 4′ and 1′, 5′ in the para-substituted phenyl ring with a distance of 2.5 Å and that the distances of the protons in pyrimidine ring are the same.

T1 sequence (P08238 whole entry): as above

With `O=C(NCCOc1ccccc1)c1ccc(Nc2cc(N3CCNCC3)ncn2)cc1` [Compound 13g, N-(2-Phenoxyethyl)-4-((6-(piperazin-1-yl)pyrimidin-4-yl)amino)benzamide], the “Kd (Hsp90β) in presence of Cdc37” value in assay [1] (1.0 μM Cdc37) is reported as “too low for quantification”. Moreover, at full-length Hsp90β (negative NOEs in the presence of Hsp90β), the “binding to Hsp90β by transferred NOESY (trNOESY)” value is given as “confirmed”. In addition, the “STD amplification factor (AMP)” value at full-length Hsp90β (proton 1'') amounted to 0.83; on full-length Hsp90β (proton 3'') it was 4.88; on full-length Hsp90β (protons 1', 5'), 1.75; on full-length Hsp90β (protons 1, 5) it was 2.18; on full-length Hsp90β (protons 2', 4'), 1.78; on full-length Hsp90β (protons 2,3,4) it was 2.14.
Regarding `CN(CCOc1ccccc1)C(=O)c1csc(Nc2cc(N3CCNCC3)ncn2)n1` [Compound 8c, N-Methyl-N-(2-phenoxyethyl)-2-((6-(piperazin-1-yl)pyrimidin-4-yl)amino)thiazole-4-carboxamide], the figures for the Kd in assay [1] (0.5 μM Cdc37), in assay [1] (1.0 μM Cdc37) and in assay [1] (2.0 μM Cdc37) were 81.7 µM, 90.2 µM and 98.2 µM, respectively.

In general, Kd refers to the constant that tells how readily two partners part at equilibrium.
